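48-hour exposure; five concentrations; linearly interpolated endpoints. Here, GI50 denotes the concentration required for 50% inhibition of growth.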 Active and inactive are the calls of the source. Rule as the data show it: active = GI50 up to about 1.1 µM and inactive = higher.
Experiments:
Test in all cases: DTP human tumour cell line panel, 48 h
SF-295 = system: SF-295
EKVX = system: EKVX
786-0 = system: 786-0
Hs-578T = system: Hs-578T
MDA-MB-231 = system: MDA-MB-231
T47D = system: T47D
NCI-H522 = system: NCI-H522
LOX IMVI = system: LOX IMVI
HCT-116 = system: HCT-116
U-251 = system: U-251
RXF 393 = system: RXF 393
Malme-3M = system: Malme-3M
OVCAR-8 = system: OVCAR-8
PC-3 = system: PC-3
SF-268 = system: SF-268
TK-10 = system: TK-10
COLO 205 = system: COLO 205
SNB-75 = system: SNB-75
HOP-92 = system: HOP-92
UO-31 = system: UO-31

Measured: GI50

OCCNCCN1CCN(CCCN2c3ccccc3Sc3ccc(C(F)(F)F)cc32)CC1
inactive: SF-295 20.4 µM | EKVX 28.1 µM | 786-0 17.3 µM | Hs-578T 47.3 µM | MDA-MB-231 20.9 µM | T47D 27.1 µM | NCI-H522 19.2 µM | LOX IMVI 14.5 µM | HCT-116 17.9 µM | U-251 20.3 µM | RXF 393 26.3 µM | Malme-3M 29.5 µM | OVCAR-8 18 µM | PC-3 32 µM | SF-268 24.5 µM | TK-10 22.1 µM | COLO 205 18.2 µM

Cc1cc2nnn(C3CCCO3)c2cc1C (stereo not drawn)
inactive: SF-295 > 100 µM | EKVX > 100 µM | 786-0 > 100 µM | Hs-578T > 100 µM | MDA-MB-231 > 100 µM | SNB-75 31.8 µM | T47D > 100 µM | NCI-H522 > 100 µM | HCT-116 > 100 µM | U-251 > 100 µM | RXF 393 > 100 µM | Malme-3M > 100 µM | OVCAR-8 > 100 µM | PC-3 > 100 µM | SF-268 > 100 µM | TK-10 > 100 µM | COLO 205 > 100 µM

COc1cc2c(cc1OC)C(=O)N(NC1=NCCN1)C2=O
inactive: SF-295 > 100 µM | EKVX > 100 µM | 786-0 > 100 µM | Hs-578T > 100 µM | MDA-MB-231 > 100 µM | T47D > 100 µM | NCI-H522 > 100 µM | LOX IMVI > 100 µM | HCT-116 > 100 µM | U-251 > 100 µM | RXF 393 > 100 µM | Malme-3M > 100 µM | OVCAR-8 > 100 µM | PC-3 > 100 µM | SF-268 > 100 µM | TK-10 > 100 µM | COLO 205 > 100 µM

COc1ccc(/C=C2\NC(=S)N(/C=C3\C(=O)Oc4ccccc4C3=O)C2=O)cc1OC
inactive: HOP-92 73.6 µM | SF-295 > 100 µM | EKVX 54.5 µM | 786-0 > 100 µM | Hs-578T 87.5 µM | MDA-MB-231 > 100 µM | SNB-75 32.4 µM | T47D > 100 µM | NCI-H522 22.6 µM | LOX IMVI > 100 µM | HCT-116 > 100 µM | U-251 > 100 µM | RXF 393 77.6 µM | OVCAR-8 > 100 µM | PC-3 > 100 µM | SF-268 > 100 µM | UO-31 54.6 µM | TK-10 > 100 µM | COLO 205 > 100 µM

CCOC(=O)CCC(NC(=O)Cc1ccc(Nc2nc3cc(F)c(F)cc3nc2C(=O)OCC)cc1)C(=O)OCC (stereo not drawn)
inactive: HOP-92 28.8 µM | SF-295 > 100 µM | EKVX > 100 µM | 786-0 > 100 µM | Hs-578T 40.8 µM | MDA-MB-231 41.8 µM | SNB-75 35.2 µM | T47D 25.2 µM | NCI-H522 38.2 µM | LOX IMVI 44.4 µM | HCT-116 83.9 µM | U-251 > 100 µM | Malme-3M 88.1 µM | OVCAR-8 94.2 µM | PC-3 > 100 µM | SF-268 31.3 µM | UO-31 > 100 µM | TK-10 > 100 µM | COLO 205 > 100 µM

OC1(CCc2ccccc2)COC(C(F)(F)F)(C(F)(F)F)C1 (stereo not drawn)
inactive: SF-295 > 100 µM | EKVX > 100 µM | 786-0 > 100 µM | Hs-578T > 100 µM | MDA-MB-231 > 100 µM | SNB-75 > 100 µM | T47D > 100 µM | NCI-H522 > 100 µM | LOX IMVI > 100 µM | HCT-116 > 100 µM | U-251 > 100 µM | RXF 393 > 100 µM | Malme-3M > 100 µM | OVCAR-8 > 100 µM | PC-3 > 100 µM | SF-268 > 100 µM | UO-31 > 100 µM | TK-10 > 100 µM | COLO 205 > 100 µM

CCc1nc2c(n1CC)C(=O)c1ccccc1C2=O
inactive: HOP-92 63.2 µM | SF-295 48.1 µM | EKVX 91.6 µM | 786-0 > 100 µM | Hs-578T 67.6 µM | MDA-MB-231 16.9 µM | SNB-75 20.7 µM | T47D 18.3 µM | NCI-H522 31.6 µM | HCT-116 > 10 µM | U-251 44.2 µM | RXF 393 19.8 µM | Malme-3M 15.5 µM | OVCAR-8 32.8 µM | PC-3 18.8 µM | SF-268 69 µM | TK-10 22.1 µM | COLO 205 16.8 µM

CSC1=N/C(=C\c2c[nH]c3ccccc23)C(=O)N1
inactive: HOP-92 > 100 µM | 786-0 84.3 µM | Hs-578T 43.4 µM | MDA-MB-231 52.6 µM | SNB-75 27.7 µM | T47D 53.2 µM | LOX IMVI 78.3 µM | HCT-116 70.3 µM | U-251 56.4 µM | RXF 393 92.7 µM | Malme-3M 36.1 µM | OVCAR-8 > 100 µM | PC-3 44.7 µM | SF-268 71 µM | UO-31 35.8 µM | TK-10 66.7 µM | COLO 205 63 µM

O=c1ccc2ccc(OP(=O)(O)O)cc2o1
inactive: SF-295 > 100 µM | EKVX > 100 µM | 786-0 > 100 µM | Hs-578T > 100 µM | MDA-MB-231 > 100 µM | SNB-75 > 100 µM | T47D > 100 µM | NCI-H522 > 100 µM | LOX IMVI > 100 µM | HCT-116 > 100 µM | U-251 > 100 µM | RXF 393 > 100 µM | Malme-3M > 100 µM | OVCAR-8 > 100 µM | PC-3 > 100 µM | SF-268 > 100 µM | UO-31 > 100 µM | TK-10 > 100 µM | COLO 205 > 100 µM

COc1ccc(/C=C2\Sc3nnc(-c4ccccc4)n3N=C2c2cc(F)c(Cl)cc2Cl)cc1OC
inactive: HOP-92 37 µM | SF-295 > 100 µM | EKVX > 100 µM | 786-0 48.4 µM | Hs-578T 20.6 µM | MDA-MB-231 59.2 µM | T47D 29.6 µM | NCI-H522 12.6 µM | LOX IMVI > 100 µM | HCT-116 6.24 µM | U-251 > 100 µM | RXF 393 11.7 µM | OVCAR-8 48.9 µM | PC-3 66.2 µM | SF-268 21 µM | UO-31 31.1 µM | TK-10 > 100 µM

CCOc1cc(C2SCC(=O)N2c2ccc3c(c2)Oc2c(Cl)c4c(c(Cl)c2=N3)Oc2cc(N3C(=O)CSC3c3ccc(O)c(OCC)c3)ccc2N=4)ccc1O (stereo not drawn)
inactive: HOP-92 24.5 µM | SF-295 38.9 µM | EKVX 37.2 µM | 786-0 30.1 µM | Hs-578T 73.5 µM | MDA-MB-231 34.1 µM | SNB-75 21.4 µM | T47D 11 µM | NCI-H522 34 µM | LOX IMVI 35.2 µM | HCT-116 18 µM | U-251 21 µM | RXF 393 21.3 µM | OVCAR-8 32.7 µM | PC-3 48.6 µM | SF-268 21.4 µM | UO-31 68.1 µM | TK-10 41.7 µM

O=C1CC(=O)NC(NN2C(=O)CSC2c2ccccc2)=N1 (stereo not drawn)
inactive: HOP-92 55.8 µM | SF-295 > 100 µM | 786-0 > 100 µM | Hs-578T > 100 µM | MDA-MB-231 > 100 µM | SNB-75 30.9 µM | T47D > 100 µM | NCI-H522 > 100 µM | HCT-116 > 100 µM | U-251 > 100 µM | RXF 393 > 100 µM | Malme-3M > 100 µM | OVCAR-8 > 100 µM | PC-3 > 100 µM | SF-268 > 100 µM | UO-31 > 100 µM | TK-10 > 100 µM | COLO 205 > 100 µM

COCC1OC(N2C(=O)NC(=O)[C@@H]3C=C4CCCCC4=C[C@@H]32)C(OC)C1OC (stereo partly drawn)
inactive: HOP-92 75 µM | SF-295 > 100 µM | EKVX > 100 µM | 786-0 > 100 µM | Hs-578T 68.9 µM | MDA-MB-231 > 100 µM | SNB-75 > 100 µM | T47D > 100 µM | NCI-H522 > 100 µM | LOX IMVI > 100 µM | HCT-116 > 100 µM | U-251 > 100 µM | Malme-3M > 100 µM | OVCAR-8 > 100 µM | PC-3 > 100 µM | SF-268 > 100 µM | UO-31 98.9 µM | TK-10 > 100 µM

CCCCCCCCOC1C(O)C(O)C(O)C(O)C12CO2 (stereo not drawn)
inactive: SF-295 43.8 µM | 786-0 73.8 µM | Hs-578T 54.5 µM | MDA-MB-231 39.8 µM | SNB-75 32 µM | T47D 63.2 µM | NCI-H522 26.7 µM | LOX IMVI 48.4 µM | HCT-116 41 µM | U-251 41.9 µM | RXF 393 29 µM | Malme-3M 57.5 µM | OVCAR-8 62.7 µM | PC-3 55.3 µM | SF-268 64.4 µM | UO-31 78 µM | TK-10 > 100 µM | COLO 205 > 100 µM

O=C1CCCCC/C1=C\c1cccc(Cl)c1
inactive: HOP-92 35.6 µM | SF-295 20 µM | EKVX 50.9 µM | 786-0 41.1 µM | Hs-578T 35.9 µM | MDA-MB-231 > 100 µM | SNB-75 48.5 µM | T47D > 100 µM | NCI-H522 39.2 µM | LOX IMVI 41.5 µM | HCT-116 40.2 µM | U-251 47.2 µM | Malme-3M 42.9 µM | PC-3 22.5 µM | SF-268 22 µM | UO-31 24.1 µM | COLO 205 35.3 µM
